Experiment [1] has as its system HCT116 cells. As to the kind of experiment: Cell cycle analysis by flow cytometry. The experiment is classed as cell-based, human. The following applies: HCT116, 30 μM, 24 h; control 53.9. Here is the method: Inoculate HCT116 cells in a 6-well plate (5.0 × 10^5 cells per well) and incubate at 37°C for 24 h. The exponentially growing cells were then incubated with compound E at 10 and 30 μM. After 24 h, untreated cells (control) or cells treated with compound E were centrifuged at 1,000 rpm for 15 min, and then fixed in 70% ethanol at […] for at least 24 h. The cells were then resuspended in phosphate buffered saline (PBS) containing 0.1 mg/ml RNase A and 5 mg/ml PI. The DNA content of cells used for cell cycle distribution analysis was measured by flow cytometry, and analyzed using FACSalibur flow cytometer and Cell Quest software (Becton-Dickinson, Franklin Lakes, NJ, United States).
On the technique in general: A flow cytometer gives signals particle by particle.

The test system of a further experiment is ERK. As to the kind of experiment: Western blot, MAPK signaling pathway: ERK. The experiment is classed as cell-based, human. To be noted: HCT116, 10 μM, 24 h. The text has this: Extracellular signal-regulated kinases are the most closely related MAPK. MAPK, a family of serine/threonine protein kinases, is also an important transmitter of signaling from the cell surface to the nucleus, and it is involved in the regulation of many physiological processes, including apoptosis ([Bian et al., 2021]). The MAPK pathway has been implicated in regulating tumor angiogenesis, proliferation, metastasis and invasion ([Ko et al., 2017]). MAPK family is mainly composed of ERK, p38 and JNK subfamily.
FIGURE 9 Effect of compound E on […] in HCT116 cells. Cells were pretreated with the various concentrations of compound E (2.5, 5 and 10 μM) for 24 h. The expression of phospho-ERK, ERK, phospho-JNK, JNK, phospho-p38, p38 were analyzed by Western blot. ***p < 0.001, **p < 0.01, *p < 0.05 vs. control group. The error bars represent the mean ± SD for three independent experiments.
(§1) HCT116 cells were cultured with different concentrations of compound E for 24 h. Then, the floating cells were collected and washed twice with ice-cold PBS. Add cold RIPA buffer. After the cells were lysed on ice for 20 min, the lysate was centrifuged at 12,000 rpm for 15 min at 4°C. The BCA method determines the protein concentration. […] The protein is detected by electrochemiluminescence (Bio-Rad, CA, United State).
In general terms: In western blotting, separated proteins are transferred to a membrane and probed.

Another experiment has as its system Bcl-2. As to the kind of experiment: Western blot, Bcl-2 expression. The experiment is classed as cell-based, human. The following applies: HCT116, 10 μM, 24 h. Here is the method: The Bcl-2 protein family (including the anti-apoptotic protein Bcl-2 and the pro-apoptotic protein Bax) is a group of key apoptotic proteins that play an important role in the regulation of apoptosis ([Han et al., 2013]; [Zhang and Saghatelian, 2013]; [Zheng et al., 2021]). HCT116 cells were treated with different concentrations (2.5, 5, and 10 μM) of E to detect the expression of Bax and Bcl-2 proteins.
FIGURE 7 Effect of compound E on the levels of Bax, and Bcl-2 in HCT116 cells. Cells were pretreated with the various concentrations of compound E (2.5, 5 and 10 μM) for 24 h. The expression of Bax, and Bcl-2 were analyzed by Western blot. ***p < 0.001, **p < 0.01, *p < 0.05 vs. control group. The error bars represent the mean ± SD for three independent experiments.
as §1, with “concentration. Separated by SDS/PAGE electrophoresis and transferred to a nitrocellulose filter membrane for Western blot analysis. The membrane was blocked with PBS containing 5% skim milk at room temperature for 2 h.” for “concentration.”

Experiment [2] has as its system HCT116 cells. As to the kind of experiment: H&E staining of morphological changes. The experiment is classed as cell-based, human. The following applies: HCT116, 2.5, 5, 10 μM, 24 h. Here is the method:
Induction of apoptosis is the mechanism of action of many anti-proliferative drugs. When cells undergo apoptosis, they generally also undergo morphological changes ([Liu et al., 2009]). Therefore, we used H&E staining to assess morphological changes in the cells.
FIGURE 5 Cell morphological alterations and nuclear changes associated with HCT116 cells after incubation with varying concentrations E (0, 2.5, 5, 10 μM) for 24 h were assessed by staining with H&E and visualized by microscopy.

For experiment [3], the system named is BEL7402 (human hepatocellular carcinoma cell line). As to the kind of experiment: MTT anti-proliferative assay, BEL7402. It counts as cell-based. The following applies: means ± SD, n = 3. Summed up: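 Cells seeded at 1 × 10^4–1.2 × 10^4 per well were allowed to adhere 24 h, then exposed 48 h at 37 °C, 5% CO2 to compound at 1.25, 2.5, 5 and 10 μM (DMSO ≤0.1%). MCF-7 and HepG2 were grown in DMEM, HCT116 and BEL7402 in RPMI 1640, each with 10% FBS. MTT (final 2 mg/ml) was added for 4 h; formazan was dissolved in DMSO and read at 492 nm.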
For orientation: Formazan colour is commonly taken as a measure of viable cells.

SMILES strings stand for the structures.

By IC50 is commonly meant the concentration that gives 50% inhibition.

As for `CC1(C)CC[C@]2(C(=O)OCCn3nnnc3-c3ccccc3)[C@H](O)C[C@]3(C)C(=CC[C@@H]4[C@@]5(C)CC[C@H](O)[C@@](C)(C=O)[C@@H]5CC[C@]43C)[C@@H]2C1` [Compound E, 2-(5-phenyl-1H-tetrazol-1-yl)ethyl (4aR,5R,6aS,6bR,8aR,9S,10S,12aR,12bR,14bS)-9-formyl-5,10-dihydroxy-2,2,6a,6b,9,12a-hexamethyl-1,3,4,5,6,6a,6b,7,8,8a,9,10,11,12,12a,12b,13,14b-octadecahydropicene-4a (2H)-carboxylate], in the experiment with HCT116 cells [1], the “%G1” value was 81.2%. Further, in the experiment with ERK, the “phosphorylation level of ERK” value is on record as “down-regulated”. Moreover, the “level of Bcl-2” value in the experiment with Bcl-2 is reported as “decreased”. Moreover, the “morphological changes (H&E staining)” value in the experiment with HCT116 cells [2] is reported as “significant apoptotic morphological changes”. Besides, in experiment [3] (48 h incubation), the “IC50 values BEL7402” value is recorded as “strong activity”. This compound also yielded an IC50 in experiment [3] (Homo sapiens, Bel-7402, 48 h incubation) of 6.89 ± 1.69 µM.

The values are drawn from article PMC9490060, “Synthesis and evaluation of anticancer activity of quillaic acid derivatives: A cell cycle arrest and apoptosis inducer through NF-κB and MAPK pathways” (Frontiers in Chemistry, 2022).
